Test results: patent publication US20110123562A1, “ANTI-CANCER ACTIVE SUBSTANCE FROM ANTRODIA CAMPHORATA, METHOD FOR PREPARING THE SAME AND USE THEREOF” (priority 2009, published 2011)

Tests used:
Format in all cases: cell-based
HepG2 cells [1] = assay: Anti-proliferation of HepG2 cells, MTS assay
Method: (§1) HepG2 cells were obtained from American Type Culture Collection, ATCC, Rockville, Md., U.S.A. and were maintained in Williams medium E (WME), containing 10 mM/L HEPES, 5 μg/mL insulin, 2 μg/mL, glucagon, 0.05 μg/mL hydrocortisone, and 5% fetal bovine serum (Gibco Life Technologies, Grand Island, N.Y., USA). Colon cancer cells (CT26, BCRC 60443), prostate cancer cells (LNCaP, BCRC 60088) and breast cancer cells (MDA-MB-231, BCRC 60425) were obtained from the Biosources Collection and Research Center (BCRC) in the Food industry Research and Development Institute (Hsinchu, Taiwan).
HepG2 cells in WME were cultured on a 96-well cell culture plate (2.5×10^4cells per well) and incubate at 37° C. with 5% CO2. After 4 hours incubation, replace the medium with different concentrations of Antrodia camphorata sample extracts. The Antrodia camphorata extracts were dissolved in 1% dimethyl sulfoxide (DMSO) and mixed with WME medium so as to prepare extracts at different concentrations and the final concentration of DMSO was maintained below 1%. Control cultures contained only extraction solvents, and blank wells contained 100 μL growth medium with no cells. After 72 and 96 h of incubation, cell proliferation was determined by MTS assay (MTS-based cell titer 96 non-radioactivity cell proliferation assay, Promega, Madison, Wis., U.S.A.) so as to examine the anti-hepatoma activity. MTS is a colorimetric method utilizing a tetrazolium reagent. Cell proliferation was determined at 72 and 96 h from the MTS absorbance reading at 490 nm for each concentration compared with the control. […] The EC50 of a sample is defined as the median effective dose of a sample (the concentration of the sample which results in 50% of cell viability) after treating the cancer cells for a certain period of time. At least three replications of each sample were tested to confirm cell proliferation and cytotoxicity. The selective effect on cancer cells was expressed as SI (selective index) value. The SI value was determined as the ratio of CC50 versus EC50 for a tested sample.

HepG2 cells [2] = assay: Cytotoxicity (CC50) on HepG2 cells, MTS assay; conditions: concentration reducing cell viability to 50% of control in 24 h
Method: as §1
(§2) HepG2 cells in WME were cultured on a 96-well cell culture plate (2.5×10^4cells per well) and incubate at 37° C. with 5% CO2. After 4 hours incubation, replace the medium with different concentrations of Antrodia camphorata sample extracts. […] After 72 and 96 h of incubation, cell proliferation was determined by MTS assay (MTS-based cell titer 96 non-radioactivity cell proliferation assay, Promega, Madison, Wis., U.S.A.) so as to examine the anti-hepatoma activity. […] Cell proliferation was determined at 72 and 96 h from the MTS absorbance reading at 490 nm for each concentration compared with the control. […] The selective effect on cancer cells was expressed as SI (selective index) value. The SI value was determined as the ratio of CC50 versus EC50 for a tested sample.

[3] = test system: colon cancer cells (CT26); assay: Anti-proliferative activity against colon cancer cells
Method: as §1, §2

[4] = test system: prostate cancer cells (LNCaP); assay: Anti-proliferative activity against prostate cancer cells
Method: as §1, §2

[5] = test system: breast cancer cells (MDA-MB-231); assay: Anti-proliferative activity against breast cancer cells; conditions: MDA-MB-231 breast cancer cells
Method: as §1, §2

4-acetylantroquinonol B
anti-proliferative activity compared to crude extract (HepG2 cells [1]): 50 times
EC50 72 hours (HepG2 cells [1]; 72 h treatment, MTS): 0.1 µg/mL
EC50 96 hours (HepG2 cells [1]; 96 h treatment, MTS): 0.08 µg/mL
CC50 (HepG2 cells [2]): > 10 µg/mL
IC50 [3]: 48.12 ± 5.61 µg/mL
cell viability [3]: below 50%
IC50 [4]: 16.841 ± 3.41 µg/mL
cell viability [4]: below 50%
IC50 [5]: 0.091 µg/mL
cell viability [5]: below 50%
